Test results reported in patent US20240059691A1 (KALVISTA PHARMACEUTICALS LIMITED, priority 2020, published 2024).

Biological target: Human Factor XIIa (Homo sapiens (Human), UniProt P00748)
Assay: Determination of FXIIa inhibition (fluorogenic substrate H-DPro-Phe-Arg-AFC, IC50 assay)
Type: biochemical
Conditions: substrate H-DPro-Phe-Arg-AFC at Km, 25° C.; class scale A-G
Procedure: Determination of FXIIa Inhibition
In vitro inhibition of Factor XIIa was determined using an IC50 assay based on standard literature methods (see e.g Baeriswyl et al., ACS Chem. Biol., 2015, 10 (8) 1861; Bouckaert et al., European Journal of Medicinal Chemistry 110 (2016) 181). Human Factor XIIa (Enzyme Research Laboratories) was incubated at 25° C. with the fluorogenic substrate H-DPro-Phe-Arg-AFC (Peptide Protein Science) and various concentrations of the test compound. Protease activity was measured by monitoring the accumulation of liberated fluorescence from the substrate over 5 min at 25° C. The linear rate of fluorescence increase per minute was expressed as percentage (%) activity. The Km for the cleavage of the substrate by FXIIa was determined by standard transformation of the Michaelis-Menten equation. The compound inhibitor assays were performed at substrate Km concentration. IC50 values were calculated as the concentration of inhibitor giving 50% inhibition (IC50) of the uninhibited enzyme activity (100%).

Sequence of Human Factor XIIa (P00748 373-615): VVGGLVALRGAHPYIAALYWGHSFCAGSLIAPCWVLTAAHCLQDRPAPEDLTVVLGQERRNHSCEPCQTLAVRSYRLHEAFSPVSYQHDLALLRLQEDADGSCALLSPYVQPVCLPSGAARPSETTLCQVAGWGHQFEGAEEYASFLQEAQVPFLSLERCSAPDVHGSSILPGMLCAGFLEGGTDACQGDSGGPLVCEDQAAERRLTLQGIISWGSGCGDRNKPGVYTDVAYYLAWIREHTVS

Structure (SMILES)	IC50
Cc1cc(N2CCn3c(nnc3C(F)(F)F)C2C)ncc1CNc1ccnc2[nH]c(Cl)cc12 (single isomer, unassigned) [Example 1315, (R*)-2-Chloro-N-((4-methyl-6-(8-methyl-3-(trifluoromethyl)-5,6-dihydro-[1,2,4]triazolo[4,3-a]pyrazin-7(8H)-yl)pyridin-3-yl)methyl)-1H-pyrrolo[2,3-b]pyridin-4-amine]	10000 to 40000 nM
Cn1ccnc1CCCOc1cc(CNc2cccc3c(N)nccc23)ccn1 [Example 4421, 5-N-({2-[3-(1-methylimidazol-2-yl)propoxy]pyridin-4-yl}methyl)isoquinoline-1,5-diamine]	300 to 1000 nM
Cc1cc(N2CCn3c(nnc3C(F)(F)F)C2)ncc1CNc1ccnc(N)c1 [Example 1323, N4-((4-methyl-6-(3-(trifluoromethyl)-5,6-dihydro-[1,2,4]triazolo[4,3-a]pyrazin-7(8H)-yl)pyridin-3-yl)methyl)pyridine-2,4-diamine]	10000 to 40000 nM
Cc1cc(N2CCn3c(nnc3C(F)(F)F)C2C)cnc1CNc1cccc2c(N)nccc12 (centres unmarked) [Example 9007, N5-((3-methyl-5-(8-methyl-3-(trifluoromethyl)-5,6-dihydro-[1,2,4]triazolo[4,3-a]pyrazin-7(8H)-yl)pyridin-2-yl)methyl)isoquinoline-1,5-diamine]	10 to 100 nM
Nc1nccc2cc(NCc3ccnc(OC[C@@H]4CCn5ccnc5C4)c3)ccc12 (single isomer, unassigned) [Example 4412, 6-N-({2-[(7R*)-5H,6H,7H,8H-imidazo[1,2-a]pyridin-7-ylmethoxy]pyridin-4-yl}methyl)isoquinoline-1,6-diamine]	100 to 300 nM
Nc1nccc2cc(NCc3ccnc(N4CCn5c(nnc5C(F)(F)F)C4)c3)ccc12 [Example 4471, N6-((2-(3-(trifluoromethyl)-5,6-dihydro-[1,2,4]triazolo[4,3-a]pyrazin-7(8H)-yl)pyridin-4-yl)methyl)isoquinoline-1,6-diamine]	10000 to 40000 nM
Cc1cc(N2CCn3c(nnc3C(F)(F)F)C2)ncc1CNc1ccc2c(N)nccc2c1 [Example 1333, N6-((4-methyl-6-(3-(trifluoromethyl)-5,6-dihydro-[1,2,4]triazolo[4,3-a]pyrazin-7(8H)-yl)pyridin-3-yl)methyl)isoquinoline-1,6-diamine]	100 to 300 nM
CN1CCN(Cc2ccc(CNc3ccc4c(N)nccc4c3)cc2)CC1 [Example 1007, 6-N-({4-[(4-methylpiperazin-1-yl)methyl]phenyl}methyl)isoquinoline-1,6-diamine]	300 to 1000 nM
Nc1nccc2cc(NCc3ccc(OCC4CCn5cc(C(F)(F)F)nc5C4)nc3)ccc12 (centres unmarked) [Example 1028, N6-((6-((2-(trifluoromethyl)-5,6,7,8-tetrahydroimidazo[1,2-a]pyridin-7-yl)methoxy)pyridin-3-yl)methyl)isoquinoline-1,6-diamine]	1000 to 3000 nM
CN1CCN(CCc2ccc(CNc3ccc4c(N)nccc4c3)cc2)CC1 [Example 2180, 6-N-({4-[2-(4-methylpiperazin-1-yl)ethyl]phenyl}methyl)isoquinoline-1,6-diamine]	300 to 1000 nM
CN1C[C@@H]2C(COc3ccc(CNc4ccc5c(N)nccc5c4)cn3)[C@@H]2C1 (stereo partly drawn) [Example 1175, 6-N-[(6-{[(1R,5S,6S)-3-methyl-3-azabicyclo[3.1.0]hexan-6-yl]methoxy}pyridin-3-yl)methyl]isoquinoline-1,6-diamine]	300 to 1000 nM
CC(=O)N1CCC(OCc2ccc(CNc3ccc4c(N)nccc4c3)c(F)c2)CC1 [Example 2200, 1-(4-((4-(((1-aminoisoquinolin-6-yl)amino)methyl)-3-fluorobenzyl)oxy)piperidin-1-yl)ethan-1-one]	300 to 1000 nM
Nc1nccc2cc(NCc3ccc(OCC4CCNCC4)nc3)ccc12 [Example 1016, 6-N-{[6-(piperidin-4-ylmethoxy)pyridin-3-yl]methyl}isoquinoline-1,6-diamine]	100 to 300 nM
CN1CCC(OCc2ccc(CNc3ccc4c(N)nccc4c3)c(F)c2)CC12COC2 (centres unmarked) [Example 2205, 6-N-({2-fluoro-4-[({5-methyl-2-oxa-5-azaspiro[3.5]nonan-8-yl}oxy)methyl]phenyl}methyl)isoquinoline-1,6-diamine]	1000 to 3000 nM
COCC1c2nnc(C(F)(F)F)n2CCN1c1cc(C)c(CNc2cccc3c(N)nccc23)cn1 (centres unmarked) [Example 1319, N5-((6-(8-(methoxymethyl)-3-(trifluoromethyl)-5,6-dihydro-[1,2,4]triazolo[4,3-a]pyrazin-7(8H)-yl)-4-methylpyridin-3-yl)methyl)isoquinoline-1,5-diamine]	10 to 100 nM
Cc1nnc2n1CCC(COc1cc(CNc3ccc4c(N)nccc4c3)ccn1)C2 (centres unmarked) [Example 4413, 6-N-{[2-({3-methyl-5H,6H,7H,8H-[1,2,4]triazolo[4,3-a]pyridin-7-yl}methoxy)pyridin-4-yl]methyl}isoquinoline-1,6-diamine]	1000 to 3000 nM

Structure (SMILES)	IC50
Cn1ccnc1CCCOc1cc(CNc2ccc3c(N)nccc3c2)ccn1 [Example 4420, 6-N-({2-[3-(1-methylimidazol-2-yl)propoxy]pyridin-4-yl}methyl)isoquinoline-1,6-diamine]	1000 to 3000 nM
CN1CCC(F)(COc2cc(CNc3ccc4c(N)nccc4c3)ccn2)CC1 [Example 4415, 6-N-({2-[(4-fluoro-1-methylpiperidin-4-yl)methoxy]pyridin-4-yl}methyl)isoquinoline-1,6-diamine]	300 to 1000 nM
Nc1nccc2cc(NCc3ccc(OCc4ccncc4)nc3)ccc12 [Example 1014, 6-N-{[6-(pyridin-4-ylmethoxy)pyridin-3-yl]methyl}isoquinoline-1,6-diamine]	3000 to 10000 nM
CN1CCC(Cn2cc(CNc3ccc4c(N)nccc4c3)cn2)CC1 [Example 3253, N6-((1-((1-methylpiperidin-4-yl)methyl)-1H-pyrazol-4-yl)methyl)isoquinoline-1,6-diamine]	1000 to 3000 nM
Nc1nccc2cc(NCc3ccnc(OCC4CCn5cnnc5C4)c3)ccc12 (centres unmarked) [Example 4411, 6-N-[(2-{5H,6H,7H,8H-[1,2,4]triazolo[4,3-a]pyridin-7-ylmethoxy}pyridin-4-yl)methyl]isoquinoline-1,6-diamine]	300 to 1000 nM
Nc1nccc2c(NCc3ccnc(N4CCn5c(nnc5C(F)(F)F)C4)c3)cccc12 [Example 4472, N5-((2-(3-(trifluoromethyl)-5,6-dihydro-[1,2,4]triazolo[4,3-a]pyrazin-7(8H)-yl)pyridin-4-yl)methyl)isoquinoline-1,5-diamine]	1000 to 3000 nM
CN1CCC(COc2ccc(CNc3cnc4[nH]cc(Cl)c4c3)cn2)CC1 [Example 1020, 3-chloro-N-((6-((1-methylpiperidin-4-yl)methoxy)pyridin-3-yl)methyl)-1H-pyrrolo[2,3-b]pyridin-5-amine]	1000 to 3000 nM
CN1CCC(CNc2ccc(CNc3cc(C(F)(F)F)cc4[nH]ccc34)cn2)CC1 [Example 1237, N-((6-(((1-methylpiperidin-4-yl)methyl)amino)pyridin-3-yl)methyl)-6-(trifluoromethyl)-1H-indol-4-amine]	10000 to 40000 nM
Nc1nccc2cc(NCc3ccc(OCC4CCn5ccnc5C4)nc3)ccc12 (single isomer, unassigned) [Example 1023, 6-N-({6-[(7R*)-5H,6H,7H,8H-imidazo[1,2-a]pyridin-7-ylmethoxy]pyridin-3-yl}methyl)isoquinoline-1,6-diamine]	100 to 300 nM
Nc1nccc2c(NCc3ccc(N4CCn5c(nnc5C(F)(F)F)C4)nc3)nccc12 [Example 1318, N1-((6-(3-(trifluoromethyl)-5,6-dihydro-[1,2,4]triazolo[4,3-a]pyrazin-7(8H)-yl)pyridin-3-yl)methyl)-2,6-naphthyridine-1,5-diamine]	10000 to 40000 nM
CC1c2nnc(C(F)(F)F)n2CCN1c1cnc(CNc2cccc3c(N)nccc23)c(F)c1 (centres unmarked) [Example 9008, N5-((3-fluoro-5-(8-methyl-3-(trifluoromethyl)-5,6-dihydro-[1,2,4]triazolo[4,3-a]pyrazin-7(8H)-yl)pyridin-2-yl)methyl)isoquinoline-1,5-diamine]	10 to 100 nM
Cn1ccnc1CCCOc1ccc(CNc2ccc3c(N)nccc3c2)cn1 [Example 1025, 6-N-({6-[3-(1-methylimidazol-2-yl)propoxy]pyridin-3-yl}methyl)isoquinoline-1,6-diamine]	300 to 1000 nM
CN1CCC(COc2cc(CN(C)c3cccc4c(N)nccc34)ccn2)CC1 [Example 4419, N5-methyl-N5-((2-((1-methylpiperidin-4-yl)methoxy)pyridin-4-yl)methyl)isoquinoline-1,5-diamine]	3000 to 10000 nM
Cc1cc(N2CCn3c(nnc3C(F)(F)F)C2)ncc1CNc1ccc2c(N)ncc(Cl)c2c1 [Example 1334, 4-chloro-N6-((4-methyl-6-(3-(trifluoromethyl)-5,6-dihydro-[1,2,4]triazolo[4,3-a]pyrazin-7(8H)-yl)pyridin-3-yl)methyl)isoquinoline-1,6-diamine]	300 to 1000 nM
CN1CCC(OCc2ccc(CN(C)c3ccc4cnccc4c3)cc2)CC1 [Example 2204, N-methyl-N-[(4-{[(1-methylpiperidin-4-yl)oxy]methyl}phenyl)methyl]isoquinolin-6-amine]	300 to 1000 nM
CN1CCC(COc2ccc(CCc3ccc4c(N)nccc4c3)cn2)CC1 [Example 1018, 6-(2-(6-((1-methylpiperidin-4-yl)methoxy)pyridin-3-yl)ethyl)isoquinolin-1-amine]	300 to 1000 nM
